Test results taken from patent US4110327A, “2,3 Diketo-piperazinocarbonylamino alkanoic acids and derivatives” (Toyama Chemical Co., Ltd., priority 1974, dated 1978).
Values after ≈ are worked out from the molar mass of the structure shown.

Legend:
Type in all cases: cell-based
Staphylococcus aureus = experiment: MIC against clinical isolates; details: unit assumed
[1] = system: Pseudomonas aeruginosa I.F.O.; experiment: MIC against standard strain, plate method; details: unit assumed
Summary of the method: (§1)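 Heart infusion agar (pH 7.4) plates; inoculum 10^4 cells/plate (10^6 cells/ml suspension); MIC read by plate method.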

[2] = system: Staphylococcus aureus 209p; experiment: MIC against standard strain, plate method; details: unit assumed
Summary of the method: as §1

Escherichia coli NIHJ = experiment: MIC against standard strain, plate method; details: unit assumed
Summary of the method: as §1

Proteus vulgaris 3027 = experiment: MIC against standard strain, plate method; details: Proteus vulgaris 3027, standard strain; unit assumed
Summary of the method: as §1

Salmonella typhi-murium = experiment: MIC against clinical isolates; details: unit assumed
Salmonella typhi = experiment: MIC against clinical isolates; details: unit assumed
Klebsiella pneumoniae [3] = experiment: MIC against clinical isolates; details: unit assumed
Shigella flexneri = experiment: MIC against clinical isolates; details: unit assumed
Description: (§2) The minimum inhibitory concentrations (MIC) was determined by the plate method disclosed in "Chemotherapy" (Japan), Vol. 16, (1968), pages 98 - 99. The culture medium used was a Heart infusion agar (pH 7.4). The number of the cells per plate used in the inoculum as 10^4 (10^6 cells/ml).
(§3) MIC was determined in the same manner as in the preceding paragraph (1).

Shigella sonnei = experiment: MIC against clinical isolates; details: clinical isolate JS 11232; unit assumed
Description: as §2, §3

Escherichia coli = experiment: MIC against clinical isolates; details: unit assumed
Pseudomonas aeruginosa = experiment: MIC against clinical isolates; details: unit assumed
Klebsiella pneumoniae [4] = experiment: MIC against standard strain, plate method; details: unit assumed
Summary of the method: as §1

[5] = clinical isolate GN (number not given; Table 5-3)

Row | SMILES | MIC (Staphylococcus aureus; clinical isolate F-1) [mg/L] | MIC (Staphylococcus aureus; clinical isolate F-5) [mg/L] | MIC (Staphylococcus aureus; clinical isolate MS 8619) [mg/L] | MIC [1] [mg/L] | MIC [2] [mg/L] | MIC (Escherichia coli NIHJ) [mg/L] | MIC (Proteus vulgaris 3027) [mg/L] | MIC (Salmonella typhi-murium; clinical isolate SL 858) [mg/L] | MIC (Salmonella typhi-murium; clinical isolate SL 2136) [mg/L] | MIC (Salmonella typhi; clinical isolate SL 819) [mg/L] | MIC (Salmonella typhi; clinical isolate SL 2169) [mg/L] | MIC (Klebsiella pneumoniae [3]; clinical isolate GN 917) [mg/L] | MIC (Klebsiella pneumoniae [3]; clinical isolate GN 4081) [mg/L] | MIC (Klebsiella pneumoniae [3]; clinical isolate GN 4117) [mg/L] | MIC (Shigella flexneri; clinical isolate JS 11215) [mg/L] | MIC (Shigella sonnei) [mg/L] | MIC (Escherichia coli; clinical isolate GN 3465) [mg/L] | MIC (Escherichia coli; clinical isolate K-3) [mg/L] | MIC (Pseudomonas aeruginosa; clinical isolate GN 82) [mg/L] | MIC (Pseudomonas aeruginosa; clinical isolate GN 163) [mg/L] | also measured
1 | CCCCN1CCN(C(=O)N[C@@H](C(=O)N[C@@H]2C(=O)N3[C@@H]2SC(C)(C)[C@@H]3C(=O)O)c2ccccc2)C(=O)C1 [compound 14] | 12.5 (≈ 23.5 µM) | 200 (≈ 376 µM) | 0.79 (≈ 1.49 µM) | 25 (≈ 47 µM) | < 1.57 | < 1.57 | < 1.57 | 1.57 (≈ 2.95 µM) | 200 (≈ 376 µM) | 6.25 (≈ 11.8 µM) | 3.13 (≈ 5.89 µM) | 25 (≈ 47 µM) | 50 (≈ 94 µM) | 50 (≈ 94 µM) | 25 (≈ 47 µM) | 25 (≈ 47 µM) | 50 (≈ 94 µM) | 200 (≈ 376 µM) | 25 (≈ 47 µM) | 25 (≈ 47 µM) | MIC (Klebsiella pneumoniae [3]; clinical isolate GN 3850): 12.5 mg/L (≈ 23.5 µM); MIC (Escherichia coli; clinical isolate K-2): 12.5 mg/L (≈ 23.5 µM); MIC (Pseudomonas aeruginosa; clinical isolate GN 221): 25 mg/L (≈ 47 µM); MIC (Pseudomonas aeruginosa; clinical isolate GN 376): 50 mg/L (≈ 94 µM); MIC (Pseudomonas aeruginosa; clinical isolate GN 383): 50 mg/L (≈ 94 µM); MIC (Pseudomonas aeruginosa; clinical isolate GN 1035): 50 mg/L (≈ 94 µM); MIC (Pseudomonas aeruginosa; clinical isolate GN 1091): 25 mg/L (≈ 47 µM); MIC (Pseudomonas aeruginosa; clinical isolate GN 2565): 50 mg/L (≈ 94 µM); MIC (Pseudomonas aeruginosa; clinical isolate GN 2987): 12.5 mg/L (≈ 23.5 µM); MIC (Pseudomonas aeruginosa; [5]): 50 mg/L (≈ 94 µM); MIC (Pseudomonas aeruginosa; clinical isolate S-1): 50 mg/L (≈ 94 µM); MIC (Pseudomonas aeruginosa; clinical isolate S-2): 50 mg/L (≈ 94 µM); MIC (Pseudomonas aeruginosa; clinical isolate S-3): 100 mg/L (≈ 188 µM); MIC (Pseudomonas aeruginosa; clinical isolate S-4): 50 mg/L (≈ 94 µM)
2 | CC1(C)S[C@@H]2[C@H](NC(=O)C(C(=O)O)c3ccccc3)C(=O)N2[C@H]1C(=O)O (stereo partly drawn) [Sodium Carbenicillum, reference compound] |  |  |  |  |  |  |  | 12.5 | > 200 | 6.25 | 3.13 |  |  |  | > 200 | > 200 |  |  |  |  | 
3 | CCCCCCN1CCN(C(=O)N[C@@H](C(=O)N[C@@H]2C(=O)N3[C@@H]2SC(C)(C)[C@@H]3C(=O)O)c2ccccc2)C(=O)C1 [compound 13] | 12.5 (≈ 22.3 µM) | 200 (≈ 357 µM) | 0.79 (≈ 1.41 µM) | 25 (≈ 44.7 µM) | < 1.57 | < 1.57 | < 1.57 | 0.79 (≈ 1.41 µM) | 200 (≈ 357 µM) | 6.25 (≈ 11.2 µM) | 3.13 (≈ 5.59 µM) | 12.5 (≈ 22.3 µM) | 25 (≈ 44.7 µM) | 25 (≈ 44.7 µM) | 12.5 (≈ 22.3 µM) | 12.5 (≈ 22.3 µM) | 25 (≈ 44.7 µM) | 100 (≈ 179 µM) | 50 (≈ 89.3 µM) | 25 (≈ 44.7 µM) | MIC (Staphylococcus aureus; clinical isolate F-2): 1.57 mg/L (≈ 2.81 µM); MIC (Klebsiella pneumoniae [4]): < 1.57 mg/L; MIC (Shigella flexneri; clinical isolate JS 11839): 1.57 mg/L (≈ 2.81 µM); MIC (Pseudomonas aeruginosa; clinical isolate GN 221): 50 mg/L (≈ 89.3 µM); MIC (Pseudomonas aeruginosa; clinical isolate GN 376): 50 mg/L (≈ 89.3 µM); MIC (Pseudomonas aeruginosa; clinical isolate GN 383): 50 mg/L (≈ 89.3 µM); MIC (Pseudomonas aeruginosa; clinical isolate GN 1035): 50 mg/L (≈ 89.3 µM); MIC (Pseudomonas aeruginosa; clinical isolate GN 1091): 25 mg/L (≈ 44.7 µM); MIC (Pseudomonas aeruginosa; clinical isolate GN 2565): 50 mg/L (≈ 89.3 µM); MIC (Pseudomonas aeruginosa; clinical isolate GN 2987): 12.5 mg/L (≈ 22.3 µM); MIC (Pseudomonas aeruginosa; [5]): 50 mg/L (≈ 89.3 µM); MIC (Pseudomonas aeruginosa; clinical isolate S-1): 50 mg/L (≈ 89.3 µM); MIC (Pseudomonas aeruginosa; clinical isolate S-2): 50 mg/L (≈ 89.3 µM); MIC (Pseudomonas aeruginosa; clinical isolate S-3): 100 mg/L (≈ 179 µM); MIC (Pseudomonas aeruginosa; clinical isolate S-4): 50 mg/L (≈ 89.3 µM)
